Measured values published in US7572770B2, “Use of an interleukin 1 receptor antagonist and/or pyrrolidinedithiocarbamate for the treatment or prophylaxis of type 2 diabetes” (University of Zurich, priority 2002, dated 2009).

Assays:
Type in all cases: cell-based
IL-1Ra = IL-1Ra release and mRNA in human blood monocytes; settings: leptin, 15 and 48 hours
Experimental: (§1) Human blood monocytes were isolated as described previously (37), cultured in RPMI 1640 (Invitrogen) containing 100 U/ml penicillin, 100 μg/ml streptomycin and 10% fetal calf serum and exposed to 10 or 500 nM leptin.
RNA extraction and RT-PCR. Islets were cultured in a suspension as described above. Total RNA was extracted using Rneasy mini kit (Qiagen, Basel, Switzerland) and RT-PCR was performed using the Superscript™ II Rnase H-Reverse transcriptase kIT and oligo (dT) (7) (Life technologies, Gaithersburg, Md., USA) according to the instructions from the manufacturers. The following primers were used: 5′[…]3′(SEQ ID. NO. 1)/5′[…]3′ (human IL-1Ra) (SEQ ID.NO. 2) and 5′[…]3′(SEQ ID. NO. 3)/5′[…]3′ (human IL-1β) (SEQ ID. NO. 4). PCR conditions were: denaturation for 30 seconds at 94° C., annealing for 30 seconds at 60° C., and elongation for 30 seconds at 72° C., followed for real time PCR by quantification for 5 seconds at 82° C.; repetition for 40 cycles. Saturation of PCR product occurred between 19 and 33 cycles. […] For quantitative analysis, we used the LightCycler quantitative PCR system (Roche) and performed quantitative PCR with a commercial kit (LightCycler-DNA Master SYBR Green I; Roche). […]
(§2) Cytokine release. Cytokine release was evaluated in the culture medium collected before the termination of each experiment using human IL-1β and IL-1Ra ELISA kits (R&D Systems Inc.).

IL-1β = IL-1β release from human blood monocytes exposed to leptin
Experimental: as §1, §2

human islets β-cells = assay: β-cell apoptosis (TUNEL) and necrosis (propidium iodide) in human islets; settings: 4 days
Experimental: Islet isolation and culture. Islets were isolated from pancreases of eleven organ donors at the Department of Surgery, University of Geneva Medical Center, as described (32-34). The islet purity was >95%, as judged by dithizone staining (if this degree of purity was not primarily achieved by routine isolation, islets were handpicked). […] For long-term in vitro studies, the islets were cultured on extracellular matrix-coated plates derived from bovine corneal endothelial cells (Novamed Ltd., Jerusalem, Israel), allowing the cells to attach to the dishes and spread, preserving their functional integrity (7;35). Islets were cultured in CMRL 1066 medium containing 100 U/ml penicillin, 100 μg/ml streptomycin and 10% fetal calf serum (Gibco, Gaithersburg, Md.), hereinafter referred to as culture medium. Two days after plating, when most islets were attached and began to flatten, the medium was changed to culture medium containing 5.5, 11.1 or 33.3 mM glucose. In some experiments, islets were additionally cultured with 2 ng/ml recombinant human IL-1β, 1000 U/ml recombinant human IFNγ (ReproTech EC Ltd, London, UK), 500 ng/ml IL-1β receptor antagonist (IL-1Ra) (R&D Systems Inc., Minneapolis, Minn.), 1 ng/ml membrane bound Fas-ligand (FasL) (36) (upstate biotechnology, Lake Placid, N.Y.) or with 100 μM pyrrolidinedithiocarbamate (PDTC; Sigma; 2 h per 2 d of culture).
β-cell apoptosis. The free 3-OH strand breaks resulting from DNA degradation were detected by the terminal deoxynucleotidyl transferase-mediated dUTP nick-end labeling (TUNEL) technique (38). After washing with PBS, cultured islets were fixed in 4% paraformaldehyde (30 min, room temperature) followed by permeabilisation with 0.5% triton X-100 (4 min, room temperature). The TUNEL assay was performed according to the manufacturer's instructions (In Situ Cell Death Detection Kit, AP; Boehringer Mannheim, Germany). […] The samples were immediately evaluated by fluorescence microscopy for positively stained […] nuclei.

Substance	IL-1Ra release and mRNA in peripheral blood monocytes (IL-1Ra)	IL-1β release from peripheral blood monocytes (IL-1β; 15 hours)	IL-1β release from peripheral blood monocytes (IL-1β; 48 hours)	baseline apoptosis (TUNEL-positive β-cells) (human islets β-cells; 5.5 mM glucose)	glucose-induced β-cell apoptosis / DNA fragmentation (TUNEL) (human islets β-cells; 33.3 mM glucose, with IL-1Ra 500 ng/ml or PDTC 100 μM)
leptin: rh leptin (PeproTech); protein encoded by the ob gene	A similar dual effect	increased IL-1β release	did not significantly affect IL-1β release	–	–
Interleukin 1 receptor antagonist [IL-1Ra]	–	–	–	did not significantly change baseline apoptosis	protected the β-cells from apoptosis
